{"source": "patent US5977138A", "about": "“Ether muscarinic antagonists” (Schering Corporation, priority 1997, dated 1999)", "origin": "cited, not measured here", "test_system": "m2 muscarinic receptor", "details": "Baumgold et al., Eur. J. of Pharmacol., 251 (1994) 315-317", "data": [{"smiles": "C[C@H]1CC[C@@H]2N(C1)C[C@H]1[C@@H]3C[C@H]4[C@@H](CC(=O)[C@H]5C[C@@H](Cl)CC[C@@]54C)[C@@H]3CC[C@H]1[C@]2(C)O", "note": "[3-α-chloroimperialine]", "values": [{"measurement": "m2 selective muscarinic antagonism", "result": "highly selective m2 muscarinic antagonist"}]}]}
